Molecules are shown by their SMILES.

The assay addresses T1, soybean lipoxygenase (sLOX) (Glycine max, UniProt P08170).
T1 construct: gene LOX1.1
T1 sequence (P08170 1-839): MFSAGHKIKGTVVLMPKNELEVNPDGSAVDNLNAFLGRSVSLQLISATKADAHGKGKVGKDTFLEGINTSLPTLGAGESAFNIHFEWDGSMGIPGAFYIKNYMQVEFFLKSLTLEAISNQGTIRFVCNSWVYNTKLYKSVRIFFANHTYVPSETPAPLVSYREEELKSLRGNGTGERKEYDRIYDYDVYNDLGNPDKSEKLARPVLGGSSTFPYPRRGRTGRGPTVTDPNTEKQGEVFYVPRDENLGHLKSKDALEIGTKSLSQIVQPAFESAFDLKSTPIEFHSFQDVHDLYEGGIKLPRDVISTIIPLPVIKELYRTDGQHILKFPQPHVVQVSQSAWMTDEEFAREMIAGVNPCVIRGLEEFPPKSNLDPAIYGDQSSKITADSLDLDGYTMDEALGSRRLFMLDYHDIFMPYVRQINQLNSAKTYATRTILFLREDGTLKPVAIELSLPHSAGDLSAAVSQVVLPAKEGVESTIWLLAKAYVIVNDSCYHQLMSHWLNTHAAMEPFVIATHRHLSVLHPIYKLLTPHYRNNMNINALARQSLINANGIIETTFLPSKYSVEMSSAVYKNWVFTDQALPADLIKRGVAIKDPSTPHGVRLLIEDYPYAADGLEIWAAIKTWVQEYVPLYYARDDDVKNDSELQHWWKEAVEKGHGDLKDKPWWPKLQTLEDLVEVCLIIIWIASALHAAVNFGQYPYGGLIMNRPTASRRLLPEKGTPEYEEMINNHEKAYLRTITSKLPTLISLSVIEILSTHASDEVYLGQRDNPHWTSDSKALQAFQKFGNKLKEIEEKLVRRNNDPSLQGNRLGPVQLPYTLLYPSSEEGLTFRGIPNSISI
Kind of assay: UV absorbance enzyme assay at […] nm, sodium linoleate substrate, pH […]. To be noted: read-out: LOX(%)/ IC50. In kind it is biochemical.

`O=c1ccc2ccc(OCc3cc(-c4cccnc4)no3)cc2o1` [7a, 7-((3-(Pyridin-3-yl)isoxazol-5-yl)methoxy)-2H-chromen-2-one]: the IC50 was determined as 10 µM. With `O=c1cc(OCc2cc(-c3ccncc3)no2)c2ccccc2o1` [13a, 4-((3-(Pyridin-4-yl)isoxazol-5-yl)methoxy)-2H-chromen-2-one], the IC50 was 5 µM.

The record behind these values is article PMC11990191, “Pharmacochemical Studies of Synthesized Coumarin–Isoxazole–Pyridine Hybrids” (Molecules, 2025).
